In PubChem BioAssay (NCI):
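Cultured in 96-well plates, cells were exposed to test compound for 48 hours across five concentrations. The concentration for full growth arrest is given as TGI.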

Legend:
Test in all cases: DTP human tumour cell line panel, 48 h
[1] = system: OVCAR-5 ovarian
[2] = system: NCI-H226 lung
[3] = system: CAKI-1 renal
[4] = system: HS 578T breast
[5] = system: SN12C renal
[6] = system: 786-0 renal
[7] = system: SK-OV-3 ovarian
[8] = system: HCT-116 colon
[9] = system: SNB-19 CNS
[10] = system: NCI-H522 lung
[11] = system: SW-620 colon
[12] = system: OVCAR-4 ovarian
[13] = system: TK-10 renal
[14] = system: MDA-MB-435
[15] = system: UO-31 renal
[16] = system: HOP-62 NSCLC
[17] = system: IGROV1 ovarian
[18] = system: MDA-N
[19] = system: HOP-92 NSCLC
[20] = system: DU-145 prostate
[21] = system: U251 CNS
[22] = system: HCT-15 colon
[23] = system: OVCAR-3 ovarian
[24] = system: MALME-3M melanoma
[25] = system: T-47D breast
[26] = system: SK-MEL-2 melanoma
[27] = system: RPMI-8226 leukemia
[28] = system: CCRF-CEM leukemia
[29] = system: MCF7 breast
[30] = system: K-562 leukemia
[31] = system: HT29 colon
[32] = system: SNB-75 CNS
[33] = system: BT-549 breast
[34] = system: UACC-257 melanoma
[35] = system: EKVX NSCLC
[36] = system: HL-60(TB) leukemia
[37] = system: NCI-H460 lung
[38] = system: SR leukemia
[39] = system: COLO 205 colon
[40] = system: PC-3 prostate
[41] = system: MOLT-4 leukemia
[42] = system: SF-295 CNS
[43] = system: SK-MEL-28 melanoma
[44] = system: A549 NSCLC
[45] = system: OVCAR-8 ovarian
[46] = system: LOX IMVI melanoma
[47] = system: NCI-H23 lung
[48] = system: SK-MEL-5 melanoma
[49] = system: ACHN renal
[50] = system: KM12 colon
[51] = system: M14 melanoma
[52] = system: SF-268 CNS
[53] = system: NCI/ADR-RES ovarian
[54] = system: A498 renal
[55] = system: MDA-MB-231 breast
[56] = system: UACC-62 melanoma
[57] = system: RXF 393 renal

Measured: TGI

O=C(Sc1c(-c2ccccc2)c(=O)n(-c2ccccc2)c(=S)n1-c1ccccc1)c1cccs1
97.8 µM: [28]
95.1 µM: [48]
61.2 µM: [46]
86 µM: [41]
not listed: [54] | [55] | [56] | [57]
> 100 µM: all other assays above

COc1ccccc1N=Nc1c(O)c(S(=O)(=O)O)cc2cc(S(=O)(=O)O)ccc12
not listed: [29] | [36] | [37]
> 100 µM: all other assays above
